According to ChEMBL document CHEMBL1201862, “PubChem BioAssay data set” (2004):
Calls of active or inactive are those of the source. For most assays here, no stated cut-off is given here; in the data, actives have a measured EC50 and inactives only a lower limit.

Experiments:
[1] = inhibitors of intracellular T. cruzi replication, confirmation, NIH3T3 host cells, beta-gal luminescence (AID 2044); type: functional, cell-based;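 further: intracellular parasites grown in NIH/3T3 mouse fibroblasts as host cells; luminescent beta-galactosidase reporter signal from transgenic T. cruzi replicating inside host cells; inhibitors lower the luminescence signal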
[2] = cytotoxicity toward NIH3T3 fibroblasts, dose response, counter-screen, cell-based, ATP luminescence, mouse fibroblasts (AID 2010); type: functional;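 further: cells exposed to compound for about 90 hours before reading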
[3] = Luminescence Cell-Based Dose Retest to Confirm Inhibitors of Cancer Stem Cells. [Related pubchem assays (depositor defined):AID2717, AID2721]; type: functional; conditions: Homo sapiens
Paired box protein Pax-8 = Paired box protein Pax-8 (Homo sapiens, UniProt Q06710); assay: inhibitors of PAX8-driven TPO luciferase reporter, dose response, RMG-I cells, cherry-pick (AID 687027); type: functional, cell-based;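 further: luciferase reporter driven by Pax8 target thyroperoxidase promoter measured by SteadyGlo luminescence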
Paired box protein Pax-8, sequence (Q06710 whole entry): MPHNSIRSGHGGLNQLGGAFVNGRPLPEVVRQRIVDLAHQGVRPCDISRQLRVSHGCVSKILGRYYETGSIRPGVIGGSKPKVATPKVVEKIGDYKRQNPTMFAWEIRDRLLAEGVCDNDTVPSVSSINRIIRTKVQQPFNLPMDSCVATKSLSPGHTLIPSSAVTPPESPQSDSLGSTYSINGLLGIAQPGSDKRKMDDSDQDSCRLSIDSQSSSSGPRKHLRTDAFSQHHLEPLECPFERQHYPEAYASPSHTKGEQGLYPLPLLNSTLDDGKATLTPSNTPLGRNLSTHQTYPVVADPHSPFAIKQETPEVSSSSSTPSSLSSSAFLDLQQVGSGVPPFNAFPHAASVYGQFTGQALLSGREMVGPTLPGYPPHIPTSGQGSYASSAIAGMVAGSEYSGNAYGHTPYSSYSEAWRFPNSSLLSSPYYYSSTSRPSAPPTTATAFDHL

cells [4] = type: functional, cell-based
cells [5] = type: functional, cell-based; remark: listed apart in the source
[6] = HEp-2 cell cytotoxicity, dose response, cytotoxicity control for RSV inhibitor project, HTS (AID 2410); type: functional; conditions: human respiratory syncytial virus
[7] = Luminescence Cell-Based Dose Confirmation HTS to Identify Activators of 5'UTR Stem-Loop Driven Alpha-Synuclein mRNA Translation in H4 Neuroglioblastoma Cells. [Related pubchem assays: 1829 (Project Summary), 1814 (Primary HTS)]; type: functional
[8] = Luminescence Cell-Based Dose Response HTS to Identify Activators of Luciferase Translation or Activity in H4 […] Cells. [Related pubchem assays: 1829 (Project Summary), 1814 (Primary HTS)]; type: functional
H4 = assay: Luminescence Cell-Based Dose Response HTS to Identify Activators of 5'UTR Stem-Loop Driven Prion Protein mRNA Translation in H4 Neuroglioblastoma Cells. [Related pubchem assays: 1829 (Project Summary), 1814 (Primary HTS)]; type: functional; conditions: Homo sapiens
[9] = inhibitors of firefly luciferase expression or activity, dose response, H4 neuroglioma cells, luminescence (AID 1990); type: functional, cell-based
[10] = Luminescence Cell-Based Dose Response HTS to Identify Inhibitors of 5'UTR Stem-Loop Driven Prion Protein mRNA Translation in H4 Neuroglioblastoma Cells. [Related pubchem assays: 1827 (Project Summary), 1813 (Primary HTS)]; type: functional
[11] = inhibitors of SNCA 5'UTR-driven reporter translation, confirmation, H4 neuroglioma cells, luminescence (AID 1988); type: functional, cell-based
INS1 = assay: beta cell apoptosis inhibitors, cytokine rescue, dose response, luminescence, retest (AID 449756); type: functional, cell-based; conditions: Rattus norvegicus;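 further: cell death triggered by IL-1 beta plus TNF-alpha plus IFN-gamma mixture; protective hits raise ATP signal compared with cytokine alone wells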
[12] = Shn3 3'UTR reporter inhibitors, dose response, cell-based, Clone20 osteoblasts, firefly luciferase, cherry-picked (AID 624132); type: functional;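 further: firefly luciferase luminescence from reporter carrying the Shn3 3'UTR in osteoblasts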
[13] = HepG2 cell cytotoxicity, dose response, cytotoxicity control for Shn3 inhibitor project, CellTiter-Glo, cherry-picked (AID 624134); type: functional, cell-based
[14] = control 3'UTR Renilla luciferase suppression, dose response, counter-screen for Shn3 inhibitor project, cell-based, Clone20-Shn3RL, cherry-picked (AID 624133); type: functional
Cytochrome P450 1A2 = target: T1, Cytochrome P450 1A2 (Homo sapiens, UniProt P05177);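 further: PubChem cytochrome P450 panel assay, CYP1A2 panel member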
T1 sequence (P05177 whole entry): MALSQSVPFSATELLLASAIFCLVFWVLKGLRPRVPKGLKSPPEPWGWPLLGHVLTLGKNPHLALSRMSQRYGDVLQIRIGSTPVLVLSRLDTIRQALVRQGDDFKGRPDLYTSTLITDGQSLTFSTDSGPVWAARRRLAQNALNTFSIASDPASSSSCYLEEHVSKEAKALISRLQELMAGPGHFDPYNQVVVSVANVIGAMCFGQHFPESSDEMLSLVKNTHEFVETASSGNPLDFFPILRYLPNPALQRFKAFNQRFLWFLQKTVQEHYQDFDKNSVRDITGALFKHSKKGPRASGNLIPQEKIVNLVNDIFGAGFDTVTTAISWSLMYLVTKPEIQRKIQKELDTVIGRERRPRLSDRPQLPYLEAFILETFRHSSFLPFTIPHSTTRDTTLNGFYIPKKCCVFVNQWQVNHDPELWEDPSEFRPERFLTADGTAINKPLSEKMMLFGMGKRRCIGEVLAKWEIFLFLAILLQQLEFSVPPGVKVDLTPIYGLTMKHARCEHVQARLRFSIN

Cc1c(C(=O)c2cccc3ccccc23)c2cccc3c2n1[C@H](CN1CCOCC1)CO3
EC50 [1]: 0.887 µM (active)
EC50 [2]: 55.9 µM (active)
AC50 [3]: 3.47 µM (active)
AC50 (Paired box protein Pax-8): 8.77 µM (active)

O=C(COC(=O)/C(=C/c1cccs1)c1cccs1)NC(c1ccccc1)c1ccccc1
AC50 (Paired box protein Pax-8): 8.36 µM (active)

CC(=O)Nc1c([N+](=O)[O-])cc(C)c(Cl)c1[N+](=O)[O-]
EC50 (cells [4]): > 350 µM (not active)
EC50 (cells [5]): > 350 µM (not active)

O=C(NS(=O)(=O)c1ccc2c(c1)OCCO2)c1ccccc1
EC50 (cells [4]): > 350 µM (not active)
EC50 (cells [5]): > 350 µM (not active)

Cc1nn(Cc2ccccc2Cl)c2sc(C(=O)NC(C)(C)C)cc12
CC50 [6]: > 50 µM (active)

c1ccc(-c2ccc(-c3csnn3)cc2)cc1
EC50 [7]: 0.186 µM (active)
EC50 [8]: 0.326 µM (active)
EC50 (H4): 27.5 µM (active)

COc1ccc(-c2csc(NC(=S)NC(=O)/C=C/c3ccco3)n2)cc1Br
EC50 [9]: > 120 µM (not active)
EC50 [10]: > 120 µM (not active)
EC50 [11]: 9.94 µM (inconclusive)
AC50 [3]: 0.47 µM (active)

O=C(CN1CCCC1)Nc1nc(-c2ccc3c(c2)CCN3C(=O)c2ccccc2F)cs1
EC50 [7]: 12.9 µM (active)
EC50 [8]: 24.4 µM (active)
EC50 (H4): 16.7 µM (inconclusive)

O=C(c1ccc(-c2ccc(Cl)cc2)o1)N1CCN(c2ccc([N+](=O)[O-])cc2Cl)CC1
CC50 [6]: 9.46 µM (active)
AC50 (INS1): 3.58 µM (active)

Cc1nn(C)c(Cl)c1CN1CCCC(CO)(Cc2ccccc2)C1 (stereo not drawn)
CC50 [6]: > 50 µM (active)

CCCCNc1nc2c(c(=O)n(C)c(=O)n2C)n1Cc1cccc(OC)c1
AC50 [12]: 0.284 µM (active)
AC50 [13]: 3.87 µM (active)
AC50 [14]: 1.13 µM (active)

Cc1oc(=O)c(NC(=O)c2ccc(Cl)cc2)cc1C(=O)c1ccccc1
AC50 [12]: 32.1 µM (active)
AC50 [13]: > 70 µM (inactive)

Cc1cccc2sc(N3CCN(C(=O)C4COc5ccccc5O4)CC3)nc12 (stereo not drawn)
CC50 [6]: 25.8 µM (active)

CC(C)(C)c1ccc(OC(=O)N2CCOCC2)cc1
EC50 [7]: 23.7 µM (active)
EC50 [8]: > 120 µM (not active)
EC50 (H4): 1.3 µM (active)

O=C(NCCc1ccccc1)C1CCN(S(=O)(=O)c2ccc(-n3cnnn3)cc2)CC1
EC50 (cells [4]): > 350 µM (not active)
EC50 (cells [5]): > 350 µM (not active)

COc1cccc(Cn2nnc3c(O)nc(C4CCCN(C(=O)c5ccccc5Cl)C4)nc32)c1 (stereo not drawn)
EC50 [9]: > 120 µM (not active)
EC50 [10]: > 120 µM (not active)
EC50 [11]: > 120 µM (not active)
AC50 (Cytochrome P450 1A2): 25.1 µM (inconclusive)

COC(=O)[C@@]12CCCCN1[C@H](c1ccc(-c3ccc(OC)cc3)cc1)[C@@H]1C(=O)N(C)C(=O)[C@@H]12
CC50 [6]: 17.7 µM (active)

Cn1c(SCc2ccc(F)cc2Cl)nc2ccccc2c1=O
AC50 [12]: 8.65 µM (active)
AC50 [13]: 8.38 µM (active)
AC50 [14]: 3.09 µM (active)

Cc1ccc(OCc2nnc(SCC(=O)Nc3cccc4ccccc34)n2-c2ccccc2)cc1
EC50 [9]: > 120 µM (not active)
EC50 [10]: > 120 µM (not active)
EC50 [11]: > 120 µM (not active)

COc1ccc(-c2nc(-c3ccc(NC(=O)c4ccncc4)cc3)no2)cc1OC
AC50 [12]: 2.36 µM (active)
AC50 [13]: 4.96 µM (active)
AC50 [14]: 3.85 µM (active)

Cc1noc(C)c1COC(=O)c1ccc(-c2nc3ccccc3s2)s1
EC50 [7]: 0.414 µM (active)
EC50 [8]: 0.245 µM (active)
EC50 (H4): 13 µM (active)

CCN(CC)c1ccc(NC(=O)CSc2nc(O)c3c(C)cc(C)nc3n2)cc1
EC50 (cells [4]): > 350 µM (not active)
EC50 (cells [5]): > 350 µM (not active)

O=C(COC(=O)Cc1ccc(S(=O)(=O)N2CCCCC2)s1)Nc1ccc2c(c1)OCO2
EC50 (cells [4]): > 350 µM (not active)
EC50 (cells [5]): > 350 µM (not active)

COc1cc(C)ccc1OCCOc1ccccc1Cl
EC50 [7]: 32.5 µM (active)
EC50 [8]: 87.3 µM (active)
EC50 (H4): 18.6 µM (active)

O=C(NCCc1csc(-c2cccc(F)c2)n1)c1ccco1
EC50 (cells [4]): > 350 µM (not active)
EC50 (cells [5]): > 350 µM (not active)

CCOc1ccc(-c2nnc(N3CCCCC3)c3ccccc23)cc1
AC50 [12]: 14.9 µM (active)
AC50 [13]: > 70 µM (inactive)
AC50 [14]: 8.24 µM (active)

CCOC(=O)Cc1csc(NC(=O)/C=C/c2ccc(Cl)cc2)n1
CC50 [6]: 4.57 µM (active)

CC(NC(=O)c1cc(COc2ccc3ncccc3c2)on1)c1ccc(F)cc1 (stereo not drawn)
AC50 (INS1): 4.52 µM (active)
AC50 [12]: 2.28 µM (active)
AC50 [13]: 2.86 µM (active)
AC50 [14]: 2.2 µM (active)

O=C(CSc1nc(-c2ccc(F)cc2)cs1)N1CCOCC1
EC50 [7]: 10.1 µM (active)
EC50 [8]: 7.79 µM (active)
EC50 (H4): 14.3 µM (active)

Cn1nc(C(F)(F)F)cc1C(=O)NC1CCCCCC1
EC50 (cells [4]): > 350 µM (not active)
EC50 (cells [5]): > 350 µM (not active)

CN(C#N)c1nccc(-c2cccs2)n1
CC50 [6]: 23.8 µM (active)

CCn1nc(C)c(NC(=O)/C=C/c2ccc(OC)c(COc3ccc(Br)cc3)c2)c1C
CC50 [6]: 31.6 µM (active)
EC50 [10]: 23.7 µM (active)
EC50 [11]: 13.4 µM (active)
EC50 [1]: 2.52 µM (active)
EC50 [2]: > 60 µM (not active)

CCOC(=O)C1CCN(C(=O)C2CCCN(c3ncnc4c3nc3n4CCCCC3)C2)CC1 (stereo not drawn)
EC50 (cells [4]): > 350 µM (not active)
EC50 (cells [5]): > 350 µM (not active)

Cc1cc(N2CCCC2)ccc1/C=C1\NC(=S)N(C)C1=O
EC50 [7]: 22.1 µM (active)
EC50 [8]: 20 µM (active)
EC50 (H4): 35.5 µM (active)

c1ccc(C2=Nc3ccccc3SC2c2nc3ccccc3[nH]2)cc1 (stereo not drawn)
EC50 [7]: 0.47 µM (active)
EC50 [8]: 24.1 µM (active)
EC50 (H4): > 120 µM (not active)

CC(Sc1nnc(COc2ccc([N+](=O)[O-])cc2)n1C)C(=O)O (stereo not drawn)
EC50 (cells [4]): > 350 µM (not active)
EC50 (cells [5]): > 350 µM (not active)

O=C1N/C(=C/c2cccs2)C(=O)N1Cc1ccc(Br)cc1
EC50 (cells [4]): > 350 µM (not active)
EC50 (cells [5]): > 350 µM (not active)

CCc1ccc(CNCc2ccc(OCC(O)CN(C)Cc3ccccc3)cc2)nc1 (stereo not drawn)
AC50 [12]: 4.43 µM (active)
AC50 [13]: 25 µM (active)
AC50 [14]: 14.2 µM (active)

Cc1cc(Sc2ccc([N+](=O)[O-])cn2)ccc1Br
AC50 [13]: > 70 µM (inactive)
AC50 [14]: 31.4 µM (active)

CNc1nc(N/N=C/c2cc3c(cc2[N+](=O)[O-])OCO3)nc(Nc2ccccc2)n1
EC50 [9]: 9.21 µM (active)
EC50 [10]: 9.97 µM (active)
EC50 [11]: 12.7 µM (active)
EC50 [1]: 2.42 µM (active)
EC50 [2]: > 60 µM (inconclusive)
AC50 (INS1): 13.2 µM (active)

Cc1ccc(S(=O)(=O)N(C)C[C@H]2Oc3ccc(NC(=O)Nc4ccc(C(F)(F)F)cc4)cc3CC(=O)N([C@H](C)CO)C[C@@H]2C)cc1
AC50 (Paired box protein Pax-8): 7.34 µM (active)

C[C@@H]1CCCCO[C@@H](CN(C)Cc2ccc(C(F)(F)F)cc2)[C@H](C)CN([C@@H](C)CO)C(=O)c2cc(NS(=O)(=O)c3ccc(Cl)cc3)ccc2O1
AC50 (Paired box protein Pax-8): 9.89 µM (active)

C(=N\N1CCN(C(c2ccccc2)c2ccccc2)CC1)/c1ccc2c(c1)OCO2
EC50 [9]: > 120 µM (not active)
EC50 [10]: 0.672 µM (active)
EC50 [11]: > 120 µM (not active)

Fc1cnc(N/N=C/c2ccc(-c3ccc(Br)cc3)o2)nc1N1CCOCC1
CC50 [6]: 6.89 µM (active)
